Data: patent US10544147B2, “Purine inhibitors of human phosphatidylinositol 3-kinase delta” (MERCK SHARP & DOHME CORP., priority 2016, dated 2020)

Key:
[1] = target: PI3Kalpha (Homo sapiens (Human), UniProt P42336); assay: HTRF PI3K biochemical assay, alpha isoform (selectivity versus delta); conditions: ratio PI3K-alpha IC50 value/PI3K-delta IC50 value
[2] = target: PI3Kdelta (Homo sapiens (Human), UniProt O00329); assay: HTRF PI3K biochemical assay, delta isoform; conditions: 0.3 nM enzyme, 100 uM ATP, 50 uM PIP2; form screened (neutral or TFA salt)
Chain of PI3Kdelta (O00329 whole entry, canonical isoform): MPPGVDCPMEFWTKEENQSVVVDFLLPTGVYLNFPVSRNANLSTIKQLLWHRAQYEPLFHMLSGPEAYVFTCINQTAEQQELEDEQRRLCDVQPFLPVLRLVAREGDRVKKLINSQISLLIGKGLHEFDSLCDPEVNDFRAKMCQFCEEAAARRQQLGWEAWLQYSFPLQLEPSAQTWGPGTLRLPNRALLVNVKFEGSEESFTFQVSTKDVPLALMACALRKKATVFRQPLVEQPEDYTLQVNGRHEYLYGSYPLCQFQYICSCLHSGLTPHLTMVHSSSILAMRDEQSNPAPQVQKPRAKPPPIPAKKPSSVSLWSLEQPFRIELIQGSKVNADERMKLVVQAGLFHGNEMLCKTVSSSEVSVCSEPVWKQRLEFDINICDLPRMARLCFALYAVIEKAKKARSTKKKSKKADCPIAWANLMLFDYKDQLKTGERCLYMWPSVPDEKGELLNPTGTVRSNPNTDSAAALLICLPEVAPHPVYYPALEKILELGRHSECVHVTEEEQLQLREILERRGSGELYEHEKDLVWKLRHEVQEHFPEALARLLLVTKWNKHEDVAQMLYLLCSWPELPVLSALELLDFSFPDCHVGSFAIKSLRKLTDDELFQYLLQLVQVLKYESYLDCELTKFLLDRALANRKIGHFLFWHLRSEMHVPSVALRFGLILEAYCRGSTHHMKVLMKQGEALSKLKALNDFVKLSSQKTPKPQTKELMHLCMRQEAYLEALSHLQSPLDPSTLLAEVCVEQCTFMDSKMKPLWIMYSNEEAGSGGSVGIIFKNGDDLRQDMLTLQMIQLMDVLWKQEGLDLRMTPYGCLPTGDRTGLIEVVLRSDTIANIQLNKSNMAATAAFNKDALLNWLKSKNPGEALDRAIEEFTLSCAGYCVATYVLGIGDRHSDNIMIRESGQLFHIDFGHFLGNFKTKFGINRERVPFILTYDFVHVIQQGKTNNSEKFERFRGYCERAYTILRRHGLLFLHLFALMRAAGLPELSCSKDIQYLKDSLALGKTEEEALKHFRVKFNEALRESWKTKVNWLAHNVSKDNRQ
Chain of PI3Kdelta (P27986 whole entry partner, canonical isoform): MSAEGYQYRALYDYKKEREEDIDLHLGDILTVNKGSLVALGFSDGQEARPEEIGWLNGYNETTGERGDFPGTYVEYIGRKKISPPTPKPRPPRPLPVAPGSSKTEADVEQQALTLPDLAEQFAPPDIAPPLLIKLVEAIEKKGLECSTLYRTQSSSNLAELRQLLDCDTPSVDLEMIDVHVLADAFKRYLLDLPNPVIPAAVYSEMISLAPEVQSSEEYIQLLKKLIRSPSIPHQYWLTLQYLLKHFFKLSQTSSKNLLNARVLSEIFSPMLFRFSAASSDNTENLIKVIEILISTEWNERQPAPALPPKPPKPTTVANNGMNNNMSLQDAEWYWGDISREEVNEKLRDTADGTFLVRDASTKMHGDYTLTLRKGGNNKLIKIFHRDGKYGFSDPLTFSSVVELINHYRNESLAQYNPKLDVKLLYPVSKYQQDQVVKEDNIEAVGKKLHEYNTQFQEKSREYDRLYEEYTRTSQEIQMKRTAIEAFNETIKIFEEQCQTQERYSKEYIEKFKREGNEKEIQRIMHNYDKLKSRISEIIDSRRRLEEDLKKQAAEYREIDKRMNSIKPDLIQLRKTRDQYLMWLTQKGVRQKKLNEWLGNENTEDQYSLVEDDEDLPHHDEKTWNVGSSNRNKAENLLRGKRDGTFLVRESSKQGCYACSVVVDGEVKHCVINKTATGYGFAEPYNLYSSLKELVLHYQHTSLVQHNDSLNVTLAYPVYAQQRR

Chain of PI3Kalpha (P42336 whole entry, canonical isoform): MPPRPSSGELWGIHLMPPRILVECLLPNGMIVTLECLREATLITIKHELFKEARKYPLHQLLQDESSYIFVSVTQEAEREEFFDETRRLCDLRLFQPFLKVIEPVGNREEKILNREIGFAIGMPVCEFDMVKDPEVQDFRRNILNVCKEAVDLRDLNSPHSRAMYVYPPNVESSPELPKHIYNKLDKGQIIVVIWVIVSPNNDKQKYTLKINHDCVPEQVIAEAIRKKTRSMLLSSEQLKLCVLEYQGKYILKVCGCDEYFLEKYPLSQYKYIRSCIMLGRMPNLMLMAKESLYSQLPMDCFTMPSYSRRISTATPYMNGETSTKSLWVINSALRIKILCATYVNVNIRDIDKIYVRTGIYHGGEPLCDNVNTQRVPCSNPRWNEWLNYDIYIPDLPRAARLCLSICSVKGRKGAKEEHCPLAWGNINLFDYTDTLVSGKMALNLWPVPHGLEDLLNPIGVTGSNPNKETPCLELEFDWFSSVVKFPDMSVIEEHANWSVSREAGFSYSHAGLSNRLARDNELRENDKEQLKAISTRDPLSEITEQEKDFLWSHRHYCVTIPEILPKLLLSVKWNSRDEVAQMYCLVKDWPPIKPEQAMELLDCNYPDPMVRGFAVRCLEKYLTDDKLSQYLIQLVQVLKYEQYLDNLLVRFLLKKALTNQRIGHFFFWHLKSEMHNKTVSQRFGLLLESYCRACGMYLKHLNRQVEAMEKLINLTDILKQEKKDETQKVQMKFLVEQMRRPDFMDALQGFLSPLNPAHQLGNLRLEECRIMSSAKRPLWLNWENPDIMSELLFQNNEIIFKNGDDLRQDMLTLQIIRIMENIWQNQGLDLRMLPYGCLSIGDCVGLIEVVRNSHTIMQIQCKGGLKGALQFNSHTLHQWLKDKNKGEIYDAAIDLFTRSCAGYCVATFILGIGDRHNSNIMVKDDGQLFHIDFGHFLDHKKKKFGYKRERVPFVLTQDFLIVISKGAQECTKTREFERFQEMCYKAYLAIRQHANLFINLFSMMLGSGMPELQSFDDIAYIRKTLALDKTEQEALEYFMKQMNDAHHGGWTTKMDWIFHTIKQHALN
Chain of PI3Kalpha (P27986 whole entry partner, canonical isoform): as the sequence (P27986 whole entry partner, canonical isoform) above

SMILES | Relative Selectivity versus PI3Kalpha [1] | IC50 [2]
CCn1c(-c2cnc(C)nc2)nc2c(-c3ccc4c(c3)C(C)(NCC3CC3)C(=O)N4)ncnc21 (single isomer, unassigned) [Compound 2-33, (R or S)-3-[(cyclopropylmethyl)amino]-5-[9-ethyl-8-(2-methylpyrimidin-5-yl)-9H-purin-6-yl]-3-methyl-1,3-dihydro-2H-indol-2-one] | >4 | 2.75 µM
CCn1c(-c2cnc(C)nc2)nc2c(-c3ccc4c(c3)C(C)(NCC3CC3)C(=O)N4)ncnc21 (single isomer, unassigned) [Compound 2-34, (R or S)-3-[(cyclopropylmethyl)amino]-5-[9-ethyl-8-(2-methylpyrimidin-5-yl)-9H-purin-6-yl]-3-methyl-1,3-dihydro-2H-indol-2-one] | >10 | 0.029 µM
CCn1c(-c2cnc(C)nc2)nc2c(-c3ccc4c(c3)C(C)(NCC(C)(C)C#N)C(=O)N4)ncnc21 (single isomer, unassigned) [Compound 2-39, (R or S)-3-((5-(9-ethyl-8-(2-methylpyrimidin-5-yl)-9H-purin-6-yl)-3-methyl-2-oxoindolin-3-yl)amino)-2,2-dimethylpropanenitrile] | >10 | 0.003 µM
CCn1c(-c2cnc(C)nc2)nc2c(-c3ccc4c(c3)C(C)(NCC(C)(C)C#N)C(=O)N4)ncnc21 (single isomer, unassigned) [Compound 2-40, (R or S)-3-((5-(9-ethyl-8-(2-methylpyrimidin-5-yl)-9H-purin-6-yl)-3-methyl-2-oxoindolin-3-yl)amino)-2,2-dimethylpropanenitrile] | >10 | 0.179 µM
CCn1c(-c2cnc(C)nc2)nc2c(-c3cnc4c(c3)C(C)(N3CC(C)(C#N)C3)C(=O)N4)ncnc21 (single isomer, unassigned) [Compound 2-53, (S or R)-1-(5-(9-ethyl-8-(2-methylpyrimidin-5-yl)-9H-purin-6-yl)-3-methyl-2-oxo-2,3-dihydro-1H-pyrrolo[2,3-b]pyridin-3-yl)-3-methylazetidine-3-carbonitrile] | >10 | 0.004 µM
CCn1c(-c2cnc(C)nc2)nc2c(-c3cnc4c(c3)C(C)(N3CC(C)(C#N)C3)C(=O)N4)ncnc21 (single isomer, unassigned) [Compound 2-54, (S or R)-1-(5-(9-ethyl-8-(2-methylpyrimidin-5-yl)-9H-purin-6-yl)-3-methyl-2-oxo-2,3-dihydro-1H-pyrrolo[2,3-b]pyridin-3-yl)-3-methylazetidine-3-carbonitrile] | >10 | 0.168 µM
CCn1c(-c2cnc(C)nc2)nc2c(-c3ccc4c(c3)C(C)(OCC(C)(C)F)C(=O)N4)ncnc21 (single isomer, unassigned) [Compound 2-55, (R or S)-5-(9-ethyl-8-(2-methylpyrimidin-5-yl)-9H-purin-6-yl)-3-(2-fluoro-2-methylpropoxy)-3-methylindolin-2-one] | >10 | 0.2 µM
CCn1c(-c2cnc(C)nc2)nc2c(-c3ccc4c(c3)C(C)(OCC(C)(C)F)C(=O)N4)ncnc21 (single isomer, unassigned) [Compound 2-56, (R or S)-5-(9-ethyl-8-(2-methylpyrimidin-5-yl)-9H-purin-6-yl)-3-(2-fluoro-2-methylpropoxy)-3-methylindolin-2-one] | >10 | 0.003 µM
CCn1c(-c2cnc(C)nc2)nc2c(-c3ccc4c(c3)C(C)(OCC3CC3)C(=O)N4)ncnc21 (single isomer, unassigned) [Compound 2-57, (R or S)-3-(cyclopropylmethoxy)-5-(9-ethyl-8-(2-methylpyrimidin-5-yl)-9H-purin-6-yl)-3-methylindolin-2-one] | >10 | 0.264 µM
CCn1c(-c2cnc(C)nc2)nc2c(-c3ccc4c(c3)C(C)(OCC3CC3)C(=O)N4)ncnc21 (single isomer, unassigned) [Compound 2-58, (R or S)-3-(cyclopropylmethoxy)-5-(9-ethyl-8-(2-methylpyrimidin-5-yl)-9H-purin-6-yl)-3-methylindolin-2-one] | >10 | 0.007 µM
Cc1ncc(-c2nc3c(-c4cnc5c(c4)C(C)(NCC(C)(C)F)C(=O)N5)ncnc3n2C)cn1 (single isomer, unassigned) [Compound 2-59, (S or R)-5-(9-methyl-8-(2-methylpyrimidin-5-yl)-9H-purin-6-yl)-3-((2-fluoro-2-methylpropyl)amino)-3-methyl-1H-pyrrolo[2,3-b]pyridin-2(3H)-one] | >10 | 0.002 µM
Cc1ncc(-c2nc3c(-c4cnc5c(c4)C(C)(NCC(C)(C)F)C(=O)N5)ncnc3n2C)cn1 (single isomer, unassigned) [Compound 2-60, (S or R)-5-(9-methyl-8-(2-methylpyrimidin-5-yl)-9H-purin-6-yl)-3-((2-fluoro-2-methylpropyl)amino)-3-methyl-1H-pyrrolo[2,3-b]pyridin-2(3H)-one] | 8 | 0.133 µM
CCn1c(-c2cnc(C)nc2)nc2c(-c3ccc4c(c3)C(C)(N3C[C@@H](F)[C@H](F)C3)C(=O)N4)ncnc21 (single isomer, unassigned) [Compound 2-61, 3-(R or S)-((3R,4R)-3,4-difluoropyrrolidin-1-yl)-5-(9-ethyl-8-(2-methylpyrimidin-5-yl)-9H-purin-6-yl)-3-methylindolin-2-one] | >10 | 0.035 µM
CCn1c(-c2cnc(C)nc2)nc2c(-c3ccc4c(c3)C(C)(N3C[C@@H](F)[C@H](F)C3)C(=O)N4)ncnc21 (single isomer, unassigned) [Compound 2-62, 3-(R or S)-((3R,4R)-3,4-difluoropyrrolidin-1-yl)-5-(9-ethyl-8-(2-methylpyrimidin-5-yl)-9H-purin-6-yl)-3-methylindolin-2-one] | >10 | 0.006 µM
CCn1c(-c2cnc(C)nc2)nc2c(-c3ccc4c(c3)C(C)(N3CC(C)(F)C3)C(=O)N4)ncnc21 (single isomer, unassigned) [Compound 2-63, (R or S)-5-(9-ethyl-8-(2-methylpyrimidin-5-yl)-9H-purin-6-yl)-3-(3-fluoro-3-methylazetidin-1-yl)-3-methylindolin-2-one] | >10 | 0.087 µM
CCn1c(-c2cnc(C)nc2)nc2c(-c3ccc4c(c3)C(C)(N3CC(C)(F)C3)C(=O)N4)ncnc21 (single isomer, unassigned) [Compound 2-64, (R or S)-5-(9-ethyl-8-(2-methylpyrimidin-5-yl)-9H-purin-6-yl)-3-(3-fluoro-3-methylazetidin-1-yl)-3-methylindolin-2-one] | >10 | 0.006 µM
CCn1c(-c2cnc(C)nc2)nc2c(-c3ccc4c(c3)C(C)(NCC(C)C)C(=O)N4)ncnc21 (single isomer, unassigned) [Compound 2-65, (R or S)-5-(9-ethyl-8-(2-methylpyrimidin-5-yl)-9H-purin-6-yl)-3-(isobutylamino)-3-methylindolin-2-one] | >10 | 0.079 µM
CCn1c(-c2cnc(C)nc2)nc2c(-c3ccc4c(c3)C(C)(NCC(C)C)C(=O)N4)ncnc21 (single isomer, unassigned) [Compound 2-66, (R or S)-5-(9-ethyl-8-(2-methylpyrimidin-5-yl)-9H-purin-6-yl)-3-(isobutylamino)-3-methylindolin-2-one] | >10 | 0.001 µM
Cc1ncc(-c2nc3c(-c4ccc5c(c4)C(C)(NCC(C)(C)F)C(=O)N5)ncnc3n2C)cn1 (single isomer, unassigned) [Compound 2-67, (R or S)-3-((2-fluoro-2-methylpropyl)amino)-3-methyl-5-(9-methyl-8-(2-methylpyrimidin-5-yl)-9H-purin-6-yl)indolin-2-one] | >10 | 0.344 µM
Cc1ncc(-c2nc3c(-c4ccc5c(c4)C(C)(NCC(C)(C)F)C(=O)N5)ncnc3n2C)cn1 (single isomer, unassigned) [Compound 2-68, (R or S)-3-((2-fluoro-2-methylpropyl)amino)-3-methyl-5-(9-methyl-8-(2-methylpyrimidin-5-yl)-9H-purin-6-yl)indolin-2-one] | >10 | 0.002 µM
Cc1ncc(-c2nc3c(-c4ccc5c(c4)C(C)(NCC(C)(F)F)C(=O)N5)ncnc3n2C)cn1 (single isomer, unassigned) [Compound 2-69, (R or S)-3-((2,2-difluoropropyl)amino)-3-methyl-5-(9-methyl-8-(2-methylpyrimidin-5-yl)-9H-purin-6-yl)indolin-2-one] | 5 | 0.788 µM
Cc1ncc(-c2nc3c(-c4ccc5c(c4)C(C)(NCC(C)(F)F)C(=O)N5)ncnc3n2C)cn1 (single isomer, unassigned) [Compound 2-70, (R or S)-3-((2,2-difluoropropyl)amino)-3-methyl-5-(9-methyl-8-(2-methylpyrimidin-5-yl)-9H-purin-6-yl)indolin-2-one] | >10 | 0.004 µM
CCn1c(-c2cnc(C)nc2)nc2c(-c3ccc4c(c3)C(C)(NCC3(F)COC3)C(=O)N4)ncnc21 (single isomer, unassigned) [Compound 2-71, (R or S)-5-(9-ethyl-8-(2-methylpyrimidin-5-yl)-9H-purin-6-yl)-3-(((3-fluorooxetan-3-yl)methyl)amino)-3-methylindolin-2-one] | >10 | 0.219 µM
CCn1c(-c2cnc(C)nc2)nc2c(-c3ccc4c(c3)C(C)(NCC3(F)COC3)C(=O)N4)ncnc21 (single isomer, unassigned) [Compound 2-72, (R or S)-5-(9-ethyl-8-(2-methylpyrimidin-5-yl)-9H-purin-6-yl)-3-(((3-fluorooxetan-3-yl)methyl)amino)-3-methylindolin-2-one] | >10 | 0.003 µM
